Laboratory results from US20060211651A1, “Persulfated oligosaccharide acting on selectins and chemokine” (Taisho Pharmaceutical Co., Ltd., priority 2002, published 2006).

Experiments:
monomeric P-selectin = biological target: T1, monomeric P-selectin (Homo sapiens, UniProt P16109); test: BIAcore surface plasmon resonance, immobilized glycosaminoglycan vs monomeric P-selectin; type: binding; settings: for Kd / koff / kon: P-selectin, GAG immobilized, 25° C.; for interaction with immobilized glycosaminoglycan (sensorgram): monomeric P-selectin
T1 construct: purchased Genzyme-Techne
T1 sequence (P16109 42-771 limits assumed): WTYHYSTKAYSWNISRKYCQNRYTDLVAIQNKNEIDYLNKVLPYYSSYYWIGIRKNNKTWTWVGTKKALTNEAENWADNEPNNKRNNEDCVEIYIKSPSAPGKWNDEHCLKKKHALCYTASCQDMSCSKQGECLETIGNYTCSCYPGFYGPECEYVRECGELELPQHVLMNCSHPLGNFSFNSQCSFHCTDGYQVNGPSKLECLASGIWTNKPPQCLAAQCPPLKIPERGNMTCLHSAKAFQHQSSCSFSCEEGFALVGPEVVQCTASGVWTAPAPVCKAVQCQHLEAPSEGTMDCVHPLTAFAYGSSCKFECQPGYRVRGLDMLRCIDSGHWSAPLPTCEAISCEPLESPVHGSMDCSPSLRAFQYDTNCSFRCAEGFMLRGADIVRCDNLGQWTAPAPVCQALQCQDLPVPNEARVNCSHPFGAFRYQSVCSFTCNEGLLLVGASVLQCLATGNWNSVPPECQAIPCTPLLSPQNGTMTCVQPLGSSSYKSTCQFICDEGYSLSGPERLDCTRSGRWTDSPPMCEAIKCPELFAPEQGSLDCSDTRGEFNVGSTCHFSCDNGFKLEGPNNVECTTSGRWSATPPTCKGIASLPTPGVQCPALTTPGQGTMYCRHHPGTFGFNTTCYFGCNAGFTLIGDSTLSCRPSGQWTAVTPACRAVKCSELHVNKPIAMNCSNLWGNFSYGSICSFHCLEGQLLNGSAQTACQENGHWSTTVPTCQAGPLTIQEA
Protocol: (§1) Affinity kinetics of the interaction between various CS/DS chains and each of L-selectin, P-selectin, CD44 and chemokine were examined by surface plasmon resonance using BIAcore™ biosensor [manufactured by BIAcore AB].
(§2) All experiments were performed at 25° C. At stages of washing and dissociation, buffer C (20 mM HEPES-NaOH, 0.15M NaCl, 1 mM CaCl2, 1 mM MgCl2, pH6.8) was used as a running buffer.
(§3) First, about 1.8 to 2.0 kiloresonance unit (1 kiloresonance unit=1 ng/mm^2) of streptavidin were covalently immobilized onto B1 sensor chip via a primary amine group using an amine coupling kit [manufactured by Amercham-Bioscience] according to the instruction provided by the manufacturer. The remaining activated groups were blocked with 150 μl of 1M ethanolamine-HCl (pH8.5). Then, each glycosaminoglycan which had been biotinylated at a reducing end was injected to a sensor tip surface by using EZ-link™ biotin-LC-hydrazide [manufactured by Pierce] so as to obtain about 150 resonance unit of an immobilization level, according to the method of Sadir et al. [J. Biol. Chem., 276, 8288-8296 (2001); all teachings of which are hereby incorporated by reference].
(§4) Binding assay was performed by injecting continuously each of various concentrations of secondary lymphoid tissue chemokine, γ-interferon inducible protein-10, stromal cell-derived factor-1β, monomeric L-selectin [manufactured by Genzyme-Techne], monomeric P-selectin [manufactured by Genzyme-Techne] and monomeric CD44, to a glycosaminoglycan-coupled sensor tip at a flow rate of 30 μl/min for 0 to 90 seconds, and then injecting a running buffer thereto. A response in resonance unit was recorded as a function of a time.
(§5) A sensor tip surface was regenerated with 300 μl of 1 M NaCl when chemokine or CD44 was used, or regenerated with 300 μl of 1 M NaCl, and additional 100 μl of 50 mM EDTA (pH8.0), when selectin was used. As a result of regeneration of a sensor tip surface, a remarkable change in a baseline was not observed.
(§6) An affinity kinetic parameter was determined by BIAevaluation 3.0 software [manufactured by Pharmacia Biosensor] using a single site binding model. […] In FIG. 6 and Table 3, SLC denotes secondary lymphoid tissue chemokin, IP-10 denotes γ-interferon inducible protein-10, SDF-1β denotes stromal cell-derived factor-1β, CS E denotes chondroitin sulfate E, and CS A denotes chondroitin sulfate A. In addition, in Table 3, Kd value for the interaction between monomeric CD44 and chondroitin sulfate E is a value calculated from a binding amount at equilibrium, and Kd value of the interaction between CD44 and hyaluronic acid is a value calculated using CD44-Ig.

[1] = tested on: secondary lymphoid tissue chemokine; test: ELISA, biotinylated versican binding to SLC in presence of glycosaminoglycan; settings: 100 μg/ml glycosaminoglycan; FIG. 5
Protocol: (§7) A well of a 96 well flat bottom microtiter plate was coated with BSA (5 μg/ml), anti-versican monoclonal antibody 2B1 (5 μg/ml), CD44-Ig (7 μg/ml), L-selectin-Ig (3 μg/ml), P-selectin-Ig (3 μg/ml) or chemokine (1 μg/ml), and then blocked with a phosphate buffered physiological saline containing 3% by weight of BSA. As the above chemokine, secondary lymphoid tissue chemokine, γ-interferon inducible protein-10, platelet factor 4, stromal cell-derived factor-1β [manufactured by Pepro Tech] and stromal cell-derived factor-1α [manufactured by Pepro Tech] were used.
(§8) Thereafter, the plate was washed with the buffer A, and enzyme-linked immunosorbent assay was performed in the same manner as that of the previous report [Kawashima, H. et al., J. Biol. Chem., 275, 35448-35456 (2000)]. Binding was determined by measuring absorbance at 620 nm using alkaline phosphatase-conjugated streptavidin and Blue Phos™ substrate. In FIG. 5, expression of an abscissa axis is the same as that of FIG. 4.

P-selectin-Ig = test: ELISA, biotinylated versican binding to P-selectin-Ig in presence of glycosaminoglycan; settings: 100 μg/ml glycosaminoglycan; FIG. 5
Protocol: as §7, §8

[2] = biological target: T2, stromal cell-derived factor-1β (Homo sapiens, UniProt P48061); test: ELISA, biotinylated versican binding to SDF-1β in presence of glycosaminoglycan; settings: 100 μg/ml glycosaminoglycan; FIG. 5
T2 construct: purchased Pepro Tech
T2 sequence (P48061 22-93): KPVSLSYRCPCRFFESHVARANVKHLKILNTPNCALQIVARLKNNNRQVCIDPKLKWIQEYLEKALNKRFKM
Protocol: as §7, §8

monomeric L-selectin = biological target: T3, monomeric L-selectin (Homo sapiens, UniProt P14151); test: BIAcore surface plasmon resonance, immobilized glycosaminoglycan vs monomeric L-selectin; type: binding; settings: for Kd / koff / kon: L-selectin, GAG immobilized, 25° C.; for interaction with immobilized glycosaminoglycan (sensorgram): monomeric L-selectin
T3 construct: purchased Genzyme-Techne
T3 sequence (P14151 39-332 limits assumed): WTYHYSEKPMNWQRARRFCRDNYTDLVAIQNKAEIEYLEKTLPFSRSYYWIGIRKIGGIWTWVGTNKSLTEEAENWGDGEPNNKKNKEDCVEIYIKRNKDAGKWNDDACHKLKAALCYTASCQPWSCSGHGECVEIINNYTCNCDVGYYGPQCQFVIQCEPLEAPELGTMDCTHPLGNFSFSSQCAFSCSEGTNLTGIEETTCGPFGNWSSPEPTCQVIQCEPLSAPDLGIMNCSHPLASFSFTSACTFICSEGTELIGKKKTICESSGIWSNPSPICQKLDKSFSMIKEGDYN
Protocol: as §1, §2, §3, §4, §5, §6

| Substance | Kd (monomeric P-selectin) [nM] | koff (monomeric P-selectin) [s⁻¹] | kon (monomeric P-selectin) [M⁻¹ s⁻¹] | interaction with immobilized glycosaminoglycan (sensorgram) (monomeric P-selectin) | inhibition of binding between biotinylated versican and secondary lymphoid tissue chemokine [1] | inhibition of binding between biotinylated versican and P-selectin (P-selectin-Ig) | inhibition of binding between biotinylated versican and stromal cell-derived factor-1β [2] | Kd (monomeric L-selectin) [nM] | koff (monomeric L-selectin) [s⁻¹] | kon (monomeric L-selectin) [M⁻¹ s⁻¹] | interaction with immobilized glycosaminoglycan (sensorgram) (monomeric L-selectin) |
| --- | --- | --- | --- | --- | --- | --- | --- | --- | --- | --- | --- |
| chondroitin sulfate E [CS E] | 29.7 | 0.00125 | 42100 | bound | inhibited | inhibited | inhibited | 21.2 | 0.000439 | 20700 | bound |
| chondroitin sulfate A [CS A] | – | – | – | did not interact | – | – | – | – | – | – | did not interact |
| chondroitin polysulfate [CPS] | 56.8 | 0.000759 | 13400 | – | inhibited | inhibited | inhibited | 47.7 | 0.000366 | 7680 | – |
| dermatan polysulfate [DPS] | – | 0.000664 | 24000 | – | inhibited | inhibited | inhibited | – | 0.000289 | 13700 | – |
